Measured values reported in publication PMC6197257 (Scientific Reports, 2018).

Columns and labels:
anti-3MGA MAb = test: competitive ELISA cross-reactivity of anti-3MGA MAb; type: binding, mouse; conditions: CR = IC50 for 3MGA / IC50 for compound x 100, 3MGA calibrated as 100%
Procedure: To activate the hapten 3MGA for the preparation of anti-3MGA MAb, the 3MGA-KLH conjugate was synthesized by using a model based on the carbodiimide method with both EDC and NHS reagents. 3MGA-HSA was also prepared using the same method, and was used for ELISA. We also evaluated the hapten number of the 3MGA-HSA conjugate by MALDI-TOF MS analysis. […] The MAb was developed by using the same methods described in our previous study. Hybridomas secreting antibodies recognizing 3MGA were selected by ELISA and then subcloned 4 times by the limited dilution method. […] The heavy chain of the obtained MAb was classified using a Calbiochem mouse hybridoma subisotyping kit (EMD Biosciences, Darmstadt, Germany), whereas the light chain was estimated using an IsoQuick^TM mouse monoclonal isotyping strip (Sigma) according to the manufacturer’s instructions.
3MGA-HSA (1 µg/ml in 50 mM carbonate buffer, pH 9.6) was added into a 96-well plate (Nagel Nunc, Penfield, NY, USA) (100 µl/well), and incubated at 37 °C for 1 h. After the removal of 3MGA-HSA, the wells were washed with 200 µl/well PBS containing 0.05% Tween 20 (T-PBS) for 3 times. The wells were incubated with 300 µl/well of 5% skim milk (Morinaga-milk, Tokyo, Japan) at 4 °C overnight. […] After the wells were washed with T-PBS 3 times, HRP-labeled goat anti-mouse IgG (Fc specific) antibody (1:1,000 dilution with T-PBS) was added into the wells (100 µl/well), and the plate was incubated at 37 °C for 1 h. Next, the wells were washed with T-PBS 3 times, the substrate solution (0.006% H2O2 in 200 mM citrate buffer, pH 4.0/H2O/0.6 mg/ml ABTS 10:9:1) was added into the wells (100 µl/well), and incubated at room temperature for 15 min.

[1] = pharmacokinetics in EHBRs orally treated with GA (200 mg/kg), LC-MS/MS; type: in vivo, Eisai Hyperbilirubinemia rats (EHBRs); conditions: Eisai Hyperbilirubinemia rats (EHBR), rat, plasma; female EHBRs, GA 200 mg/kg oral, 12 h; read-out: plasma concentration 12 h after GA treatment
Procedure: Female SD rats or EHBRs (9-week-old) were anesthetized by an intraperitoneal (i.p.) injection of urethane (1 g/kg) and their jugular veins were exposed. […] Aliquots (10 µl) of plasma or urine were mixed with 20 µl of subtilisin (0.91 U/ml), incubated at 37 °C for 30 min, followed by the addition of 70 µl of astragalloside IV solution (1 µg/ml in ethanol containing 0.5% formic acid), and kept at −20 °C for 30 min.

rat kidney slices = test: uptake by rat kidney slices; type: in vitro ADME; conditions: pooled plasma of female EHBRs, pH 5.5, 2 h
Procedure: Female SD rats (9-week-old) were treated with urethane (1 g/kg, i.p.), and their kidneys were collected. After removal of the capsule, the kidneys were sliced at approximately 0.5-mm thickness in the frontal section of the organ, using a tissue slicer (Natsume Seisakusyo, Tokyo, Japan) and then cut at the renal hilus into two halves. The slices were pre-incubated at either 4 or 37 °C for 15 min in 24-well plates with 0.3 ml of the incubation medium (137 mM NaCl, 5.4 mM KCl, 0.95 mM CaCl2, 0.81 mM MgSO4, 0.44 mM KH2PO4, 0.25 mM Na2HPO4, 5.5 mM glucose, 10 mM MES, adjusted to pH 5.5). Five ml of pooled female EHBR plasma samples was lyophilized, and dissolved in 5 ml of the incubation medium. […] After washing with PBS three times, the kidney slices were homogenated in PBS using sonication, and the concentrations of protein were measured as mentioned above. […]
LC-ESI(+)MS/MS analysis was conducted at the following conditions: column, Scherzo SM-C18 (3 μm, 3 mm i.d. ×100 mm, Imtakt, Kyoto, Japan); mobile phase, (A) 5 mM AcNH4, (B) 125 mM AcNH4/acetonitrole 1:4, at a flow rate of 0.3 ml/min, with the following gradient profile: A:B = 50:50–0:100 (0–3 min) and 0:100 (3–10 min); compound 1 (5.8 min), astragaloside IV (3.0 min), GA (8.7 min); the transitions monitored were the same as described in the previous section. […]

CYP2C19 = system: CYP2C19; set-up: method as in PMID 26712778, PMID 22943175; conditions: competitive inhibitor; cited from earlier work
CYP3A4 = system: CYP3A4; set-up: method as in PMID 26712778, PMID 22943175; conditions: competitive inhibitor; cited from earlier work
CYP2C9 = system: CYP2C9; set-up: method as in PMID 26712778, PMID 22943175; conditions: competitive inhibitor; cited from earlier work
[2] = concentrations in pooled plasma of EHBRs 12 h after oral GA (200 mg/kg); type: in vivo; conditions: Eisai Hyperbilirubinemia rats (EHBR), rat
Procedure: Three female and three male EHBRs (9-week-old, respectively) were injected with urethane (1 g/kg, i.p.), and orally treated with an aqueous GA aqueous suspension (200 mg/kg in 1% CMC). Twelve h after the treatment, blood was collected from the abdominal vena cava, and the plasma samples of each sex rat were pooled.
LC-ESI(+)MS/MS analysis was conducted at the following conditions: column, Scherzo SM-C18 (3 μm, 3 mm i.d. ×100 mm, Imtakt, Kyoto, Japan); mobile phase, (A) 5 mM AcNH4, (B) 125 mM AcNH4/acetonitrole 1:4, at a flow rate of 0.3 ml/min, with the following gradient profile: A:B = 50:50–0:100 (0–3 min) and 0:100 (3–10 min); compound 1 (5.8 min), astragaloside IV (3.0 min), GA (8.7 min); the transitions monitored were the same as described in the previous section. Linear regressions over the concentration range 0.08–2 µM for compound 1 and 3.2 nM–2 µM for GA were examined using the peak-area ratio of the compounds to their internal standards and the least-squares method (r^2 > 0.98).

Compound	cross-reactivity of anti-3MGA MAb (anti-3MGA MAb)	also measured
CC1(C)[C@@H](O)CC[C@]2(C)[C@H]3C(=O)C=C4[C@@H]5C[C@@](C)(C(=O)O)CC[C@]5(C)CC[C@@]4(C)[C@]3(C)CC[C@@H]12 [GA, 18β-glycyrrhetinic acid]	1.04%	concentration at 12 h [1]: 5.9 µM; uptake by kidney slices at 37 °C compared with 4 °C (rat kidney slices): similar; IC50 (CYP2C19): 41 to 74 µM; IC50 (CYP3A4): 8.2 to 14 µM; IC50 (CYP2C9): 33 to 43 µM; concentration at 12 h ([2]; female, read-out: concentration in pooled plasma, female EHBRs): 7 µM; concentration at 12 h ([2]; male, read-out: concentration in pooled plasma, male EHBRs): 3.2 µM
CC1(C)[C@@H](O[C@H]2O[C@H](C(=O)O)[C@@H](O)[C@H](O)[C@H]2O[C@@H]2O[C@H](C(=O)O)[C@@H](O)[C@H](O)[C@H]2O)CC[C@]2(C)[C@H]3C(=O)C=C4[C@@H]5C[C@@](C)(C(=O)O)CC[C@]5(C)CC[C@@]4(C)[C@]3(C)CC[C@@H]12 [GL, glycyrrhizin]	0.22%	–
C[C@@]12C[C@@]3(O)O[C@@H](O1)[C@]1(COC(=O)c4ccccc4)[C@H]3C[C@@]12O[C@@H]1O[C@H](CO)[C@@H](O)[C@H](O)[C@H]1O [paeoniflorin]	less than 0.02%	–
O=C1C[C@@H](c2ccc(O[C@@H]3O[C@H](CO)[C@@H](O)[C@H](O)[C@H]3O)cc2)Oc2cc(O)ccc21 [liquiritin]	less than 0.02%	–
C[C@]1(C(=O)O)CC[C@]2(C)CC[C@]3(C)C(=CC(=O)[C@@H]4[C@@]5(C)CC[C@H](O[C@@H]6O[C@H](C(=O)O)[C@@H](O)[C@H](O)[C@H]6O[C@@H]6O[C@H](C(=O)O)[C@@H](O)[C@H](O)[C@H]6O)[C@](C)(CO)[C@@H]5CC[C@]43C)[C@@H]2C1 [licorice saponin G2]	less than 0.02%	–
CC(C)=CCC[C@](C)(O[C@@H]1O[C@H](CO[C@@H]2O[C@H](CO)[C@@H](O)[C@H](O)[C@H]2O)[C@@H](O)[C@H](O)[C@H]1O)[C@H]1CC[C@]2(C)[C@@H]1[C@H](O)C[C@@H]1[C@@]3(C)CC[C@H](O[C@@H]4O[C@H](CO)[C@@H](O)[C@H](O)[C@H]4O[C@@H]4O[C@H](CO)[C@@H](O)[C@H](O)[C@H]4O)C(C)(C)[C@@H]3CC[C@]12C [ginsenoside Rb1]	less than 0.02%	–
C[C@H]1O[C@@H](O[C@H]2CC[C@@]3(C)[C@@H](CC[C@]4(C)[C@@H]3C=C[C@]35OC[C@@]6(CCC(C)(C)C[C@H]63)[C@@H](O)C[C@]54C)[C@]2(C)CO)[C@H](O)[C@@H](O[C@@H]2O[C@H](CO)[C@@H](O)[C@H](O)[C@H]2O)[C@H]1O [saikosaponin a]	less than 0.02%	–
